# Results reported in US20220081412A1, “QUINOLINYL-PYRAZINE-CARBOXAMIDE COMPOUNDS AND USES THEREOF” (The Regents of the University of Michigan, priority 2018, published 2022).
# Tested on: MIA PaCa-2 cells
# Assay: Bru-seq analysis for nascent RNA synthesis (log2FC of genes, GSEA gene sets)
# Format: cell-based, human
# Conditions: 4 h, MIA PaCa-2 cells
# [1] = top upregulated protein-coding genes
# [2] = upregulated gene sets, HALLMARK
structure (smiles),measurement,setting,value
"Cc1cc(NC(=O)c2cnc(N3CCNCC3)cn2)c2ncccc2c1 [J28, N-(6-methylquinolin-8-yl)-5-(piperazin-1-yl)pyrazine-2-carboxamide]",log2FC UAP1L1,[1],1.26
same,log2FC ZC3H12A,[1],1.27
same,ES AMUNDSON_GAMMA_RADIATION_RESPONSE,"upregulated gene sets, C2",0.673
same,ES BANDRES_RESPONSE_TO_CARMUSTIN_MGMT_48HR_DN,"upregulated gene sets, C2",0.612
same,ES CAMPS_COLON_CANCER_COPY_NUMBER_UP,"upregulated gene sets, C2",0.653
same,ES DACOSTA_UV_RESPONSE_VIA_ERCC3_UP,"upregulated gene sets, C2",0.506
same,ES DAIRKEE_TERT_TARGETS_UP,"upregulated gene sets, C2",0.528
same,ES DEBIASI_APOPTOSIS_BY_REOVIRUS_INFECTION_DN,"upregulated gene sets, C2",0.488
same,ES DIRMEIER_LMPl_RESPONSE_EARLY,"upregulated gene sets, C2",0.670
same,ES ENK_UV_RESPONSE_KERATINOCYTE_UP,"upregulated gene sets, C2",0.501
same,ES FERREIRA_EWINGS_SARCOMA_UNSTABLE_VS_STABLE_DN,"upregulated gene sets, C2",0.623
same,ES GINESTIER_BREAST_CANCER_ZNF217_AMPLIFIED_DN,"upregulated gene sets, C2",0.481
same,ES HORTON_SREBF_TARGETS,"upregulated gene sets, C2",0.807
same,ES KEGG_SYSTEMIC_LUPUS_ERYTHEMATOSUS,"upregulated gene sets, C2",0.661
same,ES KIM_ALL_DISORDERS_DURATION_CORR_DN,"upregulated gene sets, C2",0.615
same,ES LEONARD_HYPDXIA,"upregulated gene sets, C2",0.716
same,ES MARTENS_TRETINOIN_RESPONSE_UP,"upregulated gene sets, C2",0.552
same,ES NIKOLSKY_BREAST_CANCER_16P13_AMPLICON,"upregulated gene sets, C2",0.699
same,ES NIKOLSKY_BREAST_CANCER_16Q24_AMPLICON,"upregulated gene sets, C2",0.706
same,ES QI_HYPOXIA,"upregulated gene sets, C2",0.559
same,ES REACTOME_AMYLOIDS,"upregulated gene sets, C2",0.710
same,ES REACTOME_CHOLESTEROL_BIOSYNTHESIS,"upregulated gene sets, C2",0.821
same,ES REACTOME_PEPTIDE_CHAIN_ELONGATION,"upregulated gene sets, C2",0.564
same,ES REACTOME_RNA_POL_I_PROMOTER_OPENING,"upregulated gene sets, C2",0.769
same,ES REACTOME_RNA_POL_I_TRANSCRIPTION,"upregulated gene sets, C2",0.622
same,ES RICKMAN_METASTASIS_DN,"upregulated gene sets, C2",0.556
same,ES SCHMIDT_POR_TARGETS_IN_LIMB_BUD_UP,"upregulated gene sets, C2",0.788
same,NES AMUNDSON_GAMMA_RADIATION_RESPONSE,"upregulated gene sets, C2",2.280
same,NES BANDRES_RESPONSE_TO_CARMUSTIN_MGMT_48HR_DN,"upregulated gene sets, C2",2.308
same,NES CAMPS_COLON_CANCER_COPY_NUMBER_UP,"upregulated gene sets, C2",2.238
same,NES DACOSTA_UV_RESPONSE_VIA_ERCC3_UP,"upregulated gene sets, C2",2.272
same,NES DAIRKEE_TERT_TARGETS_UP,"upregulated gene sets, C2",2.400
same,NES DEBIASI_APOPTOSIS_BY_REOVIRUS_INFECTION_DN,"upregulated gene sets, C2",2.211
same,NES DIRMEIER_LMPl_RESPONSE_EARLY,"upregulated gene sets, C2",2.238
same,NES ENK_UV_RESPONSE_KERATINOCYTE_UP,"upregulated gene sets, C2",2.338
same,NES FERREIRA_EWINGS_SARCOMA_UNSTABLE_VS_STABLE_DN,"upregulated gene sets, C2",2.223
same,NES GINESTIER_BREAST_CANCER_ZNF217_AMPLIFIED_DN,"upregulated gene sets, C2",2.203
same,NES HORTON_SREBF_TARGETS,"upregulated gene sets, C2",2.353
same,NES KEGG_SYSTEMIC_LUPUS_ERYTHEMATOSUS,"upregulated gene sets, C2",2.294
same,NES KIM_ALL_DISORDERS_DURATION_CORR_DN,"upregulated gene sets, C2",2.457
same,NES LEONARD_HYPDXIA,"upregulated gene sets, C2",2.369
same,NES MARTENS_TRETINOIN_RESPONSE_UP,"upregulated gene sets, C2",2.244
same,NES NIKOLSKY_BREAST_CANCER_16P13_AMPLICON,"upregulated gene sets, C2",2.231
same,NES NIKOLSKY_BREAST_CANCER_16Q24_AMPLICON,"upregulated gene sets, C2",2.371
same,NES QI_HYPOXIA,"upregulated gene sets, C2",2.230
same,NES REACTOME_AMYLOIDS,"upregulated gene sets, C2",2.374
same,NES REACTOME_CHOLESTEROL_BIOSYNTHESIS,"upregulated gene sets, C2",2.387
same,NES REACTOME_PEPTIDE_CHAIN_ELONGATION,"upregulated gene sets, C2",2.220
same,NES REACTOME_RNA_POL_I_PROMOTER_OPENING,"upregulated gene sets, C2",2.411
same,NES REACTOME_RNA_POL_I_TRANSCRIPTION,"upregulated gene sets, C2",2.250
same,NES RICKMAN_METASTASIS_DN,"upregulated gene sets, C2",2.370
same,NES SCHMIDT_POR_TARGETS_IN_LIMB_BUD_UP,"upregulated gene sets, C2",2.303
same,ES HALLMARK_ADIPOGENESIS,[2],0.383
same,ES HALLMARK_ANDROGEN_RESPONSE,[2],0.356
same,ES HALLMARK_APICAL_JUNCTION,[2],0.359
same,ES HALLMARK_APOPTOSIS,[2],0.390
same,ES HALLMARK_BILE_ACID_METABOLISM,[2],0.361
same,ES HALLMARK_CHOLESTEROL_HOMEOSTASIS,[2],0.656
same,ES HALLMARK_COAGULATION,[2],0.474
same,ES HALLMARK_DNA_REPAIR,[2],0.336
same,ES HALLMARK_ESTROGEN_RESPONSE_EARLY,[2],0.354
same,ES HALLMARK_ESTROGEN_RESPONSE_LATE,[2],0.335
same,ES HALLMARK_FATTY_ACID_METABOLISM,[2],0.392
same,ES HALLMARK_GLYCOLYSIS,[2],0.321
same,ES HALLMARK_HEME_METABOLISM,[2],0.367
same,ES HALLMARK_HYPOXIA,[2],0.479
same,ES HALLMARK_MTORC1_SIGNALING,[2],0.436
same,ES HALLMARK_MYOGENESIS,[2],0.560
same,ES HALLMARK_NOTCH_SIGNALING,[2],0.494
same,ES HALLMARK_OXIDATIVE_PHOSPHORYLATION,[2],0.351
same,ES HALLMARK_P53_PATHWAY,[2],0.471
same,ES HALLMARK_PEROXISOME,[2],0.379
same,ES HALLMARK_PI3K_AKT_MTOR_SIGNALING,[2],0.426
same,ES HALLMARK_UNFOLDED_PROTEIN_RESPONSE,[2],0.433
same,ES HALLMARK_UV_RESPONSE_UP,[2],0.436
same,ES HALLMARK_WNT_BETA_CATENIN_SIGNALING,[2],0.481
same,ES HALLMARK_XENOBIOTIC_METABOLISM,[2],0.348
same,NES HALLMARK_ADIPOGENESIS,[2],1.653
same,NES HALLMARK_ANDROGEN_RESPONSE,[2],1.381
same,NES HALLMARK_APICAL_JUNCTION,[2],1.422
same,NES HALLMARK_APOPTOSIS,[2],1.615
same,NES HALLMARK_BILE_ACID_METABOLISM,[2],1.330
same,NES HALLMARK_CHOLESTEROL_HOMEOSTASIS,[2],2.374
same,NES HALLMARK_COAGULATION,[2],1.628
same,NES HALLMARK_DNA_REPAIR,[2],1.407
same,NES HALLMARK_ESTROGEN_RESPONSE_EARLY,[2],1.458
same,NES HALLMARK_ESTROGEN_RESPONSE_LATE,[2],1.358
same,NES HALLMARK_FATTY_ACID_METABOLISM,[2],1.605
same,NES HALLMARK_GLYCOLYSIS,[2],1.363
same,NES HALLMARK_HEME_METABOLISM,[2],1.548
same,NES HALLMARK_HYPOXIA,[2],1.984
same,NES HALLMARK_MTORC1_SIGNALING,[2],1.917
same,NES HALLMARK_MYOGENESIS,[2],2.098
same,NES HALLMARK_NOTCH_SIGNALING,[2],1.473
same,NES HALLMARK_OXIDATIVE_PHOSPHORYLATION,[2],1.548
same,NES HALLMARK_P53_PATHWAY,[2],1.986
same,NES HALLMARK_PEROXISOME,[2],1.483
same,NES HALLMARK_PI3K_AKT_MTOR_SIGNALING,[2],1.634
same,NES HALLMARK_UNFOLDED_PROTEIN_RESPONSE,[2],1.739
same,NES HALLMARK_UV_RESPONSE_UP,[2],1.773
same,NES HALLMARK_WNT_BETA_CATENIN_SIGNALING,[2],1.483
same,NES HALLMARK_XENOBIOTIC_METABOLISM,[2],1.415
